{
  "source": "the NIST ThermoML archive (doi:10.1021/je100990n)",
  "details": "293.15 K; 101.33 kPa; Liquid; Vibrating wire viscometry",
  "note": "Several values for one entry are separate records, joined by “and”; a condition that tells them apart may be missing. Equal entries are not always repeated. Numbers after ± are expanded uncertainties.",
  "data": [
    {"compound": "O", "note": "[water]", "values": [
      {"measurement": "viscosity", "value": "1.002 ± 0.0087 mPa·s and 1.005 ± 0.0087 mPa·s and 0.9992 ± 0.0087 mPa·s"}
    ]}
  ]
}
